Measurements reported in ChEMBL document CHEMBL3875173, “Phenyltetrazolyl-phenylamides: Substituent impact on modulation capability and selectivity toward the efflux protein ABCG2 and investigation of interaction with the transporter” (Eur J Med Chem, 2016).

Columns and labels:
ABCG2 [1] = biological target: T1, ABCG2 (Homo sapiens, UniProt Q9UNQ0); assay: Inhibition of recombinant human GFP-fused ABCG2 expressed in MDCK2 cells assessed as reduction in Hoechst 33342 efflux at 10 uM preincubated for 30 mins followed by Hoechst 33342 addition measured immediately at 60 sec time interval for 120 mins by fluorescence assay relative to XR9577; format: cell-based, MDCK-II; conditions: MDCK2 cells expressing recombinant human GFP-fused ABCG2, probe Hoechst 33342, read-out: Imax
T1 sequence (Q9UNQ0 whole entry): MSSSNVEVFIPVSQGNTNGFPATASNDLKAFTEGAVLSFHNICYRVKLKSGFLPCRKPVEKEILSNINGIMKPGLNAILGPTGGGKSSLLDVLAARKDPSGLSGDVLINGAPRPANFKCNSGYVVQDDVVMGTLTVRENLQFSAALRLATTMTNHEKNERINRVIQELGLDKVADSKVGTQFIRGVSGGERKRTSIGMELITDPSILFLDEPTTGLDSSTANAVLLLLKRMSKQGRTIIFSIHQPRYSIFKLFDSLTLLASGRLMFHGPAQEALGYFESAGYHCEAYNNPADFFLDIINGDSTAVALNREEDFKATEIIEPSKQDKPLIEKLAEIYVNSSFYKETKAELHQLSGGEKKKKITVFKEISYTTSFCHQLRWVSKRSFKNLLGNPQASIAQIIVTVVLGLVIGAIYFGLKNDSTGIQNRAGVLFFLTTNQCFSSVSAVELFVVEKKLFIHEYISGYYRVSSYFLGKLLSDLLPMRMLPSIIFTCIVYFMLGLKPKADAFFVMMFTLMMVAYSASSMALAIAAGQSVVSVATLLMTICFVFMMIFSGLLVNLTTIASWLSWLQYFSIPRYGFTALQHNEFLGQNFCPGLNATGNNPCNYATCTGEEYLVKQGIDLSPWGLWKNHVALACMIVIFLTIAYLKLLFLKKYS

[2] = biological target: T2, Broad substrate specificity ATP-binding cassette transporter ABCG2 (Homo sapiens, UniProt Q9UNQ0); assay: Inhibition of recombinant human GFP-fused ABCG2 expressed in MDCK2 cells assessed as reduction in Hoechst 33342 efflux preincubated for 30 mins followed by Hoechst 33342 addition measured immediately at 60 sec time interval for 120 mins by fluorescence assay; format: cell-based, MDCK-II
T2 sequence (Q9UNQ0 whole entry): T1 sequence (Q9UNQ0 whole entry)

ABCG2 [3] = biological target: T1, ABCG2; assay: Inhibition of recombinant human GFP-fused ABCG2 expressed in MDCK2 cells assessed as reduction in pheophorbide A efflux at 10 uM preincubated for 30 mins followed by pheophorbide A addition measured after 2 hrs by flow cytometry relative to XR9577; format: cell-based, MDCK-II; conditions: MDCK2 cells expressing recombinant human GFP-fused ABCG2, probe pheophorbide A, read-out: Imax
[4] = biological target: T2, Broad substrate specificity ATP-binding cassette transporter ABCG2; assay: Inhibition of recombinant human GFP-fused ABCG2 expressed in MDCK2 cells assessed as reduction in pheophorbide A efflux preincubated for 30 mins followed by pheophorbide A addition measured after 2 hrs by flow cytometry; format: cell-based, MDCK-II
ABCB1 [5] = biological target: T3, ABCB1 (Homo sapiens, UniProt P08183); assay: Inhibition of ABCB1 in human A2780/ADR cells assessed as reduction in calcien-AM efflux at 10 uM preincubated for 30 mins followed by calcien-AM addition measured immediately at 60 sec time interval for 60 mins by fluorescence assay relative to cyclosporine A; format: cell-based; conditions: probe calcein-AM (printed calcien-AM), read-out: Imax
T3 sequence (P08183 whole entry): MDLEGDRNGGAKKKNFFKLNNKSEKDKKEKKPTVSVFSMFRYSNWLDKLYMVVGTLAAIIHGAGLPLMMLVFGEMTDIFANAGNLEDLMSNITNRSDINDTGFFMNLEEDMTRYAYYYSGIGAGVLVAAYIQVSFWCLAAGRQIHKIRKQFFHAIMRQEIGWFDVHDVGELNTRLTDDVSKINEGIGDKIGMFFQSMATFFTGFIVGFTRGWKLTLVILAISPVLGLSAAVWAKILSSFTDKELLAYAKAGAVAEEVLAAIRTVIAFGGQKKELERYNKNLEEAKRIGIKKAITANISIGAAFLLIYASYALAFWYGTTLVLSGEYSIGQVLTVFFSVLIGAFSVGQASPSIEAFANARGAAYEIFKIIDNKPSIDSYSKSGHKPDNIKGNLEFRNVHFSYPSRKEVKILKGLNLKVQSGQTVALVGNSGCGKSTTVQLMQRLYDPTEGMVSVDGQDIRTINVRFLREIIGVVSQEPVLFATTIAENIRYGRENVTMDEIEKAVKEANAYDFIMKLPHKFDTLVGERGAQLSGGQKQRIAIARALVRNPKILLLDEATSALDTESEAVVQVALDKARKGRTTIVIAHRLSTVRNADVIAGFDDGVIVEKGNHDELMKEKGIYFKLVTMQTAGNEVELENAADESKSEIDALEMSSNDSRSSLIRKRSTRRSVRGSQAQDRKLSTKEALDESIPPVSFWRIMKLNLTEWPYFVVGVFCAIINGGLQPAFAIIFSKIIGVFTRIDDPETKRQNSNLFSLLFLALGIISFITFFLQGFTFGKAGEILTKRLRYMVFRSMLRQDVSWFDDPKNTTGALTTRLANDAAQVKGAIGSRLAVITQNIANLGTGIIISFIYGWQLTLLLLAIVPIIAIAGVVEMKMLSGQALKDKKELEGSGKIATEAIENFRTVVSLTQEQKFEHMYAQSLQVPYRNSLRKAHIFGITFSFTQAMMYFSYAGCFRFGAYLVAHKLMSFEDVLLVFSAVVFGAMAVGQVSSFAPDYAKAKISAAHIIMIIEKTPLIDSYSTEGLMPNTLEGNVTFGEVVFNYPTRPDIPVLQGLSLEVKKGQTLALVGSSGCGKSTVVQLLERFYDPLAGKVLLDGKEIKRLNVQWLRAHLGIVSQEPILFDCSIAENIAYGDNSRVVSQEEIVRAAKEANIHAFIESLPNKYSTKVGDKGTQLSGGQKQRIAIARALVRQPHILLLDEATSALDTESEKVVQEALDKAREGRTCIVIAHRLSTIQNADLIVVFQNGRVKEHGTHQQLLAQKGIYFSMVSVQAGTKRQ

[6] = biological target: ATP-dependent translocase ABCB1 (Homo sapiens, UniProt P08183); assay: Inhibition of ABCB1 in human A2780/ADR cells assessed as reduction in calcien-AM efflux preincubated for 30 mins followed by calcien-AM addition measured immediately at 60 sec time interval for 60 mins by fluorescence assay; format: cell-based
ATP-dependent translocase ABCB1, sequence (P08183 whole entry): as above

ABCB1 [7] = biological target: T3, ABCB1; assay: Potency index, ratio of cyclosporine A IC50 to compound IC50 for ABCB1 in human A2780/ADR cells; format: cell-based; conditions: read-out: Ratio IC50
ABCG2 [8] = biological target: T1, ABCG2; assay: Potency index, ratio of Ko143 IC50 to compound IC50 for recombinant human GFP-fused ABCG2 expressed in MDCK2 cells assessed as reduction in Hoechst 33342 efflux; format: cell-based; conditions: MDCK2 cells expressing recombinant human GFP-fused ABCG2, probe Hoechst 33342, read-out: Ratio IC50
ABCG2 [9] = biological target: T1, ABCG2; assay: Potency index, ratio of Ko143 IC50 to compound IC50 for recombinant human GFP-fused ABCG2 expressed in MDCK2 cells assessed as reduction in pheophorbide A efflux; format: cell-based; conditions: MDCK2 cells expressing recombinant human GFP-fused ABCG2, probe pheophorbide A, read-out: Ratio IC50
[10] = biological target: T2, Broad substrate specificity ATP-binding cassette transporter ABCG2; assay: Non-competitive inhibition of recombinant human GFP-fused ABCG2 expressed in MDCK2 cells assessed as reduction in pheophorbide A efflux at 0.0178 to 0.1 uM preincubated for 30 mins followed by addition of varying levels of pheophorbide A by Lineweaver-Burk plot analysis; format: cell-based; conditions: mdck-ii
[11] = biological target: T2, Broad substrate specificity ATP-binding cassette transporter ABCG2; assay: Competitive inhibition of recombinant human GFP-fused ABCG2 expressed in MDCK2 cells assessed as reduction in Hoechst 33342 efflux at 0.01 to 0.1 uM preincubated for 30 mins followed by addition of varying levels of Hoechst 33342 by Lineweaver-Burk plot analysis; format: cell-based; conditions: mdck-ii

SMILES | Emax at 2 h, 10 µM (ABCG2 [1]) | IC50 [2] | Emax at 2 h, 10 µM (ABCG2 [3]) | IC50 [4] | inhibition at 1 h, 10 µM (ABCB1 [5]) | IC50 [6] | selectivity ratio (ABCB1 [7]) | selectivity ratio (ABCG2 [8]) | selectivity ratio (ABCG2 [9]) | inhibition (INH) [10] | inhibition (INH) [11]
COc1ccc(C(=O)Nc2ccccc2-c2nnn(-c3ccccc3)n2)cc1OC | 102% | 832 nM | 86% | 511 nM |  |  |  |  |  |  | 
COc1ccc(C(=O)Nc2ccccc2-c2nnn(-c3ccc(SC)cc3)n2)cc1 | 100% | 132 nM | 85% | 251 nM | ≤ 25% | 4200 nM |  |  |  |  | 
O=C(Nc1ccccc1-c1nnn(-c2ccc(Cl)cc2)n1)c1ccc([N+](=O)[O-])cc1 |  | > 10000 nM |  |  |  |  |  |  |  |  | 
CCCc1ccc(C(=O)Nc2ccccc2-c2nnn(-c3ccccc3)n2)cc1 | 100% | 212 nM | 85% | 96.6 nM | ≤ 25% | 8140 nM |  |  |  |  | 
O=C(Nc1ccccc1-c1nnn(-c2ccccc2)n1)c1ccc([N+](=O)[O-])cc1 | 60% | 150 nM | 69% | 321 nM |  |  |  |  |  |  | 
COc1ccc(-n2nnc(-c3ccccc3NC(=O)c3ccccc3[N+](=O)[O-])n2)cc1 | 76% | 266 nM | 61% | 311 nM | ≤ 25% | 6200 nM |  |  |  |  | 
COc1ccc(-n2nnc(-c3ccccc3NC(=O)c3cccc([N+](=O)[O-])c3)n2)cc1 | 57% | 168 nM | 56% | 247 nM |  |  |  |  |  |  | 
CCCc1ccc(C(=O)Nc2ccccc2-c2nnn(-c3ccc(Oc4ccccc4)cc3)n2)cc1 |  | > 10000 nM |  |  |  |  |  |  |  |  | 
CCCc1ccc(C(=O)Nc2ccccc2-c2nnn(-c3ccc(O)cc3)n2)cc1 | 106% | 204 nM | 107% | 129 nM | ≤ 25% | 434 nM | 3 |  |  |  | 
CCCc1ccc(C(=O)Nc2ccccc2-c2nnn(-c3ccc(SC)cc3)n2)cc1 | 76% | 783 nM | 69% | 679 nM |  |  |  |  |  |  | 
COc1ccc(C(=O)Nc2ccccc2-c2nnn(-c3ccc(OC)cc3)n2)cc1 | 100% | 199 nM | 92% | 300 nM | ≤ 25% | 2880 nM |  |  |  |  | 
O=C(Nc1ccccc1-c1nnn(-c2ccccc2)n1)c1cccc([N+](=O)[O-])c1 | 91% | 127 nM | 98% | 123 nM | ≤ 25% | 9400 nM |  |  |  |  | 
CCOc1ccc(-n2nnc(-c3ccccc3NC(=O)c3ccccc3[N+](=O)[O-])n2)cc1 | 72% | 308 nM |  |  |  |  |  |  |  |  | 
COc1ccc(C(=O)Nc2ccccc2-c2nnn(-c3ccc(OC)c(OC)c3)n2)cc1 | 100% | 319 nM |  |  | ≤ 25% | 3200 nM |  |  |  |  | 
CCCc1ccc(C(=O)Nc2ccccc2-c2nnn(-c3ccc(OC(=O)c4ccc(CCC)cc4)cc3)n2)cc1 |  | > 10000 nM |  |  |  |  |  |  |  |  | 
CCOc1ccc(-n2nnc(-c3ccccc3NC(=O)c3ccc(OC)cc3)n2)cc1 | 50% | 793 nM |  |  |  |  |  |  |  |  | 
O=C(Nc1ccccc1-c1nnn(-c2ccccc2)n1)c1ccc(C(F)(F)F)cc1 | 100% | 4390 nM | 100% | 3630 nM |  |  |  |  |  |  | 
COc1ccc(C(=O)Nc2ccccc2-c2nnn(-c3ccc(Oc4ccccc4)cc3)n2)cc1 |  | > 10000 nM |  |  |  |  |  |  |  |  | 
O=C(Nc1ccccc1-c1nnn(-c2ccccc2)n1)c1ccccc1 | 90% | 66.9 nM | 109% | 64 nM | ≤ 25% | 21800 nM |  | 3 to 4 | 3 to 4 |  | 
COc1ccc(-n2nnc(-c3ccccc3NC(=O)c3ccccc3)n2)cc1OC | 104% | 230 nM | 95% | 212 nM | ≤ 25% | 4030 nM |  |  |  |  | 
CC(C)c1ccc(-n2nnc(-c3ccccc3NC(=O)c3ccc(C(F)(F)F)cc3)n2)cc1 |  | > 10000 nM |  |  |  |  |  |  |  |  | 
COc1ccc(C(=O)Nc2ccccc2-c2nnn(-c3ccc(C(C)C)cc3)n2)cc1 | 97% | 136 nM | 95% | 131 nM | ≤ 25% | 19400 nM |  |  |  |  | 
COc1ccc(-n2nnc(-c3ccccc3NC(=O)c3ccc(C(F)(F)F)cc3)n2)cc1OC | 80% | 330 nM |  |  | ≤ 25% | 10200 nM |  |  |  |  | 
CSc1ccc(-n2nnc(-c3ccccc3NC(=O)c3ccccc3[N+](=O)[O-])n2)cc1 | 91% | 221 nM | 77% | 117 nM | ≤ 25% | 9780 nM |  |  |  |  | 
COc1ccc(C(=O)Nc2ccccc2-c2nnn(-c3ccccc3)n2)cc1 | 101% | 200 nM | 93% | 208 nM | ≤ 25% | 5470 nM |  |  |  | Active | Active
COc1ccc(C(=O)Nc2ccccc2-c2nnn(-c3ccc(Cl)cc3)n2)cc1 | 59% | 223 nM |  |  |  |  |  |  |  |  | 
CSc1ccc(-n2nnc(-c3ccccc3NC(=O)c3ccc([N+](=O)[O-])cc3)n2)cc1 |  | > 10000 nM |  |  |  |  |  |  |  |  | 
O=C(Nc1ccccc1-c1nnn(-c2ccccc2)n1)c1ccccc1[N+](=O)[O-] | 57% | 280 nM | 76% | 458 nM | < 10% |  |  |  |  |  | 
CSc1ccc(-n2nnc(-c3ccccc3NC(=O)c3ccc(C(F)(F)F)cc3)n2)cc1 |  | > 10000 nM |  |  |  |  |  |  |  |  | 
